Values of other authors, collected in paper PMC10778976, “BAY-3827 and SBI-0206965: Potent AMPK Inhibitors That Paradoxically Increase Thr172 Phosphorylation” (International Journal of Molecular Sciences, 2023).

Set-up: method as in ref 32 = [32]; 32. Lemos C. Schulze A. Overview for BAY-3827, an Inhibitor of PRKAA1, RPS6KA1 Available online: https://www.sgc-ffm.uni-frankfurt.de/chemProbes#!specificprobeoverview/BAY-3827 (accessed on 14 Novembe)
Details: mouse liver microsomes; cited from earlier work

CCc1ccccc1C(=O)Nc1n[nH]c2c(C)c(F)c(C3C(C#N)=C(C)N(C)C(C)=C3C#N)cc12 [BAY-3827]
in vitro clearance (CL): 83 mL/min/kg | oral bio-availability (Fmax): 7%
